Patent US20070196763A1, “Method of forming laminated resist” (DAIKIN INDUSTRIES, LTD., priority 2003, published 2007)
Several values for one entry are separate records, joined by “and”; a condition that tells them apart may be missing. Equal values may be shown once.

Legend:
[1] = Determination of pKa value of monomer having hydrophilic group by NaOH titration
Procedure: In a water/acetone mixture (10/15 ml) solution was poured 0.7865 g of CH2═CHCH2C(CF3)2OH, followed by stirring at room temperature. After it was confirmed that the solution was homogeneous, titration was carried out with about 0.2 mol/L NaOH solution. A titration curve was obtained by adding the NaOH solution dropwise in increments of 0.15 ml and recording a pH value at every addition. An equivalence point was determined by an inflection point (maximum differential value of titration curve=dpH/dml) of the titration curve.

[2] = monomer having hydrophilic group used in the Preparation Example, NaOH titration in water/acetone, corrected
[3] = water/acetone mixture, pKa, monomer having hydrophilic group used in the Preparation Example, corrected

pKa [1, 2] | pKa [1, 3] | Structure (SMILES) | also measured
– | 1.4 | O=C(O)/C=C\C(=O)O [Maleic acid] | –
4.0 | – | C=C(F)C(F)(F)OC(F)(C(F)(F)F)C(F)(F)OC(F)(C(F)(F)F)C(F)(F)OC(F)(C(F)(F)F)C(F)(F)OC(F)(C(=O)O)C(F)(F)F (centres unmarked) [perfluoro-(15,15-dihydro-2,5,8,11-tetrakistrifluoromethyl-3,6,9,12-tetraoxa-14-pentadecenic acid)] | –
– | 9.6 | C=CCC(O)(C(F)(F)F)C(F)(F)F [CH2═CHCH2C(CF3)2OH, 1,1-bistrifluoromethyl-3-buten-1-ol] | pKa value (single titration) ([1]; NaOH titration in water/acetone, pH at half equivalence point minus blank difference): 9.64 and 9.54; pKa ([1]; water/acetone mixture, pKa value (decided from experiments carried out three times), NaOH titration in water/acetone): 9.6; pKa ([1]; water/acetone mixture, pKa value (single titration), NaOH titration in water/acetone, pH at half equivalence point minus blank difference): 9.69
3.8 | – | C=C(F)C(F)(F)OC(F)(C(F)(F)F)C(F)(F)OC(F)(C(F)(F)F)C(F)(F)OC(F)(C(=O)O)C(F)(F)F (centres unmarked) [perfluoro-(12,12-dihydro-2,5,8-tristrifluoromethyl-3,6,9-trioxa-11-dodecenic acid)] | –

Continued, compound first:

Structure (SMILES) | pKa [1, 2] | pKa [1, 3] | also measured
C=C(F)C(F)(F)OC(F)(C(F)(F)F)C(F)(F)OC(F)(CO)C(F)(F)F (centres unmarked) [(1,1,9,9-tetrahydro-2,5-bistrifluoromethyl-3,6-dioxa-8-nonenol)] | 12.6 | – | –
C=C(C(=O)O)C(F)(F)F [2-(trifluoromethyl)acrylic acid] | – | 3.9 | –
C=C(F)C(F)(F)OC(F)(C(F)(F)F)C(F)(F)OC(F)(C(=O)O)C(F)(F)F (centres unmarked) [perfluoro-(9,9-dihydro-2,5-bistrifluoromethyl-3,6-dioxa-8-nonenoic acid)] | 3.6 | – | –
C=C(F)C(F)(F)OC(F)(C(=O)O)C(F)(F)F (centres unmarked) [perfluoro-(6,6-dihydro-2-trifluoromethyl-3-oxa-5-hexenoic acid)] | – | – | pKa (physchem): 3.4
